Source: patent US20250163006A1, “New Coolants, and Preparations Containing Same” (Symrise AG, priority 2022, published 2025)
Where two headings read alike, the source gives them in different places.

Key:
[1] = Sensory tasting of cooling intensity by trained panelists, WS-3 as reference; format: in vivo, human; details: 5 ppm in 5% sugar solution, rated after one minute, scale 1 (very weak) to 9 (very strong); for Sensory evaluation: cooling intensity
Procedure: In order to quantify the cooling effect, comparative tests are carried out using menthane-3-carboxylic acid-N-ethylamide as a reference. For these comparative tests, the skilled person replaces the compound or compounds to be used according to the invention with menthane-3-carboxylic acid-N-ethylamide (also referred to as WS-3). Then the intensities of the cooling effects of the respective compounds or active ingredients are sensory evaluated by trained panelists (n=10 to 11) as described below and compared with each other.
The cooling intensity was tested as follows: Test solutions with 5 ppm of the compounds according to the invention were each tasted in a 5% sugar solution as well as a corresponding solution with 30 ppm of the reference substance WS-3. […] The panelists tasted the corresponding test solutions for exactly 40 seconds, rinsing the entire mouth with the corresponding test solution and then spitting out the sample or reference solution. Following the tasting, the test subjects rated the respective cooling intensity after one minute according to a scale of 1 (very weak) to 9 (very strong).

human TRPM8 receptor = target: T1, human TRPM8 receptor (Homo sapiens, UniProt Q7Z2W7); assay: Assay on TRPM8 modulators: Ca2+-sensitive dye (Fluo-4) fluorescence in HEK293-TRPM8 test cells; format: cell-based; parameters: relative TRPM8 activation: concentration or dose not given beside the values; details: for EC50: HEK293-TRPM8 cells
T1 construct: expressed in transfected cells; host or cells: HEK293, stably transfected, tetracycline-inducible expression
T1 sequence (Q7Z2W7 whole entry): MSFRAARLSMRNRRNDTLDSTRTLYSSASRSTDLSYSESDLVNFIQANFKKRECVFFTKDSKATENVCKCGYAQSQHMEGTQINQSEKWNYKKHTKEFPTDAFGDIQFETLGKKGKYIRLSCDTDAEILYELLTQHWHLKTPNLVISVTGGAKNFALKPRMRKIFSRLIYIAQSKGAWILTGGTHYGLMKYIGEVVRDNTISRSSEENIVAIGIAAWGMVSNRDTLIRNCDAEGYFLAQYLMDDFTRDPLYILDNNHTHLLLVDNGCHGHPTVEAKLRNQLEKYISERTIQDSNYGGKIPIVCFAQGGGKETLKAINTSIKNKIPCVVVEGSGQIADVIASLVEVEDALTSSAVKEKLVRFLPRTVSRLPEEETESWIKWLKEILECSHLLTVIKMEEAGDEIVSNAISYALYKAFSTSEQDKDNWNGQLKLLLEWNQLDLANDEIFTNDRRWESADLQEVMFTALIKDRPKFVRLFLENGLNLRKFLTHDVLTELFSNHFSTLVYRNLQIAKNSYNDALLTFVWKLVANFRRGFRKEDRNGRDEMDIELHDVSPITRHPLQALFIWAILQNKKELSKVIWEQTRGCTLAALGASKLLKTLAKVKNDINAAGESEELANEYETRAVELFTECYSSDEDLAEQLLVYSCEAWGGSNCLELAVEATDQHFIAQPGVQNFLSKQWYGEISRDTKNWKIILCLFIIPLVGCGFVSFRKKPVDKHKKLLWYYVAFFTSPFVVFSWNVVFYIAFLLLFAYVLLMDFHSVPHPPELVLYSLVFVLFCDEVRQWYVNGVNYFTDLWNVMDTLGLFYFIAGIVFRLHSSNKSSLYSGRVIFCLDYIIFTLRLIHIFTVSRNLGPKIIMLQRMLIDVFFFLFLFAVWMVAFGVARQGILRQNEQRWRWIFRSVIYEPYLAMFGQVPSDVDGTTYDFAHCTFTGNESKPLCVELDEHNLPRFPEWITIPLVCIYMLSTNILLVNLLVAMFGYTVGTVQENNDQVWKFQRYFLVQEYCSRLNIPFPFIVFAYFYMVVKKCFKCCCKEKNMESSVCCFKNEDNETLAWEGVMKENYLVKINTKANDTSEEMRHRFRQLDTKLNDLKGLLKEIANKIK
Summary of the method: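 HEK293 cells stably carrying tetracycline-inducible human TRPM8 (1 µg/ml tetracycline), loaded next day with Fluo-4 (30 min 37 °C, 30 min RT). Compounds tested in triplicate at 0.1–200 µM (≤2% DMSO) and fluorescence read at 485/520 nm. EC50 from 4- or 5-parameter logistic fits of 6–10 concentrations.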

relative TRPM8 activation (human TRPM8 receptor; HEK293 cells recombinantly expressing human TRPM8) [%]	EC50 (human TRPM8 receptor; TRPM8 activation, 6 to 10 concentrations, logistic curve fitting, read-out: EC50 value) [µM]	EC50 (human TRPM8 receptor; Table 5, read-out: TRPM8 EC50) [µM]	EC50 (human TRPM8 receptor; Table 7, read-out: TRPM8 EC50) [µM]	EC50 (human TRPM8 receptor; Table 6, read-out: TRPM8 EC50) [µM]	EC50 (human TRPM8 receptor; Table 8, read-out: TRPM8 EC50) [µM]	Structure (SMILES)	Sensory evaluation ([1]; Table 6)	Sensory evaluation ([1]; Table 5)	Sensory evaluation ([1]; Table 9)	cooling intensity (sensory evaluation, score) ([1]; tasted 40 seconds, n=10 to 11)	Sensory evaluation ([1]; Table 10)
69						O=C(CCc1nc(-c2ccccc2)c(-c2ccccc2)o1)NC1CC1 [Compound A-22, N-cyclopropyl-3-(4,5-diphenyloxazol-2-yl)propanamide]	0.8				
	≤ 1	0.28	0.28			O=C(CSc1nnc(-c2ccccc2)c(-c2ccccc2)n1)N1CCC1 [Compound B-06, 1-(azetidin-1-yl)-2-[(5,6-diphenyl-1,2,4-triazin-3-yl)sulfanyl]ethanone]		3.0	3.0		
		1.43	1.43			CNC(=O)C(C)Sc1nnc(-c2ccccc2)c(-c2ccccc2)n1 (stereo not shown) [Compound B-11, 2-[(5,6-diphenyl-1,2,4-triazin-3-yl)sulfanyl]-N-methyl-propanamide]		5.3	5.3	5.3	
				4.27	4.27	CNC(=O)CCc1nc(-c2ccccc2)c(-c2ccccc2)o1 [Compound A-16, 3-(4,5-diphenyloxazol-2-yl)-N-methyl-propanamide]	2.3				2.3
